Reference: patent publication US5643601A, “Phospholipid-and fluorocarbon-containing cosmetic” (Lancaster Group AG, priority 1992, dated 1997)
Where two headings read alike, the source gives them in different places.

Experiments:
[1] = Critical solubility temperature (CST) of fluorocarbons in n-hexane
Excerpt: (§1) The fluorocarbons can be selected for O2 solubility, partial vapour pressure and lipid solubility according to the specific intended application. The critical solubility temperature of the fluorocarbons (CST) in n-hexane correlates with their solubility in lipids, e.g. cell membranes, and is thus a measure of the rate of release through the skin. […] It is thus possible by mixing various fluorocarbons to set defined CST values which are often not realisable by means of individual compounds.
Starting from these values, the desired characteristics for the penetration of the skin with the aid of a cosmetic composition can be selected for mixtures of fluorocarbons.

[2] = Vapour pressure of fluorocarbons (Table 1); type: physicochemical
Excerpt: (§2) Some selected fluorocarbons and their O2 solubility, their vapour pressure and their critical solubility temperature are shown in Table 1.

[3] = O2 solubility of fluorocarbons (Table 1); type: physicochemical
Excerpt: as §2

skin [4] = assay: Release of fluorocarbons through the skin
Excerpt: as §1

skin [5] = settings: in words; cited from earlier work

Vapour Pressure P37° C. [2] [mm Hg]	CST (critical solubility temperature) [1] [°C]	rate of release through the skin / half-life of release (skin [4])	SMILES	CST (critical solubility temperature) ([1]; in n-hexane) [°C]	Vapour Pressure P37° C. ([2]; 37° C.) [mm Hg]	O2 solubility [3]	rate of release through the skin / half-life of release (skin [4]; in words, correlated with CST)	skin irritation / side effects (skin [5])
			FC(F)(F)C(F)(F)C(F)(F)C(F)(F)C=CC(F)(F)C(F)(F)C(F)(F)C(F)(F)F [Bis-F(butyl)ethene]	22.5	12.6	50 ml of O2 /100 ml of Fc		
			FC1(F)OC(F)(F)C(F)(F)N(C(F)(F)C2(F)C(F)(F)C(F)(F)C(F)(F)C(F)(F)C2(F)F)C1(F)F [F-cyclohexylmethyl-morpholine]	38.5	4	42 ml of O2 /100 ml of Fc		
			FC(F)(F)C(F)(F)C(F)(F)C(F)(F)C(F)(F)C(F)(F)OC(F)(F)C(F)(F)C(F)(F)C(F)(F)C(F)(F)C(F)(F)F [F-dihexyl ether]	59	2	45 ml of O2 /100 ml of Fc		
414			FC(F)(F)C(F)(F)C(F)(F)C(F)(F)C(F)(F)C(F)(F)F [F-hexane]			58 ml of O2 /100 ml of Fc		
			FC(F)(F)C1(F)C(F)(F)C(F)(F)C(F)(F)C(F)(F)C1(F)F [F-methylcyclohexane]	8.2	180	57 ml of O2 /100 ml of Fc		
			FC(F)(F)C(F)(F)C(F)(F)C(F)(F)N(C(F)(F)C(F)(F)C(F)(F)C(F)(F)F)C(F)(F)C(F)(F)C(F)(F)C(F)(F)F [F-tributylamine]	59	1	40 ml of O2 /100 ml of Fc	high half-life of release	
	43		FC(F)(F)C(F)(F)C(F)(F)N(C(F)(F)C(F)(F)C(F)(F)F)C(F)(F)C(F)(F)C(F)(F)F [F-tripropylamine]		18.5	45 ml of O2 /100 ml of Fc		
			FC(F)(F)C(F)(F)C(F)(F)C(F)(F)C1(F)OC(F)(F)C(F)(F)C1(F)F (stereo not drawn) [Perfluorobutyl-tetrahydrofuran]	29	51	52 ml of O2 /100 ml of Fc		
	22	released relatively rapidly	FC1(F)C(F)(F)C(F)(F)C2(F)C(F)(F)C(F)(F)C(F)(F)C(F)(F)C2(F)C1(F)F (stereo not drawn) [Perfluorodecalin]		12.5	40 ml of O2 /100 ml of Fc		
	-24.5	released relatively rapidly	FC(F)(F)C(F)(F)C(F)(F)C(F)(F)C(F)(F)C(F)(F)C(F)(F)C(F)(F)Br [Perfluorooctyl bromide]		14	50 ml of O2 /100 ml of Fc		
			OO [hydrogen peroxide]					considerable side effects such as the skin irritations
